Source: US20090247768A1, “CRYSTALLINE SULFONAMIDE-CONTAINING INDOLE COMPOUND AND PROCESS FOR PREPARING THE SAME” (priority 2003, published 2009)

Assay: Solid stability against light (impurity content by HPLC after storage)
Format: physicochemical
Details: for Impurity content (%): HPLC; for change in impurity content before and after storage: 25° C./1000 Lx, 1 month and 3 months
Method: Column: ODS column (inner diameter=4.6 mm, column length=250 mm, particle size=5 μm) Column temperature: 30° C. Detection wavenumber: 282 nm Flow rate: 1.0 mL/min Mobile phase: Solution A: CH3CN/H2O/70% HClO4=100/900/1 (v/v/v) Solution B: CH3CN/H2O/70% HClO4=900/100/1 (v/v/v)
All of the peaks and peak areas were calculated from the chromatogram, and the impurity amount for each peak (except for the peak of N-(3-cyano-4-methyl-1H-indol-7-yl)-3-cyanobenzenesulfonamide) was calculated according to the following formula.
Individual impurity content (%)=(individual impurity peak area)/(total of all peak areas)×100
Peaks with impurity contents of 0.05% or greater were recorded as impurity peaks, and their total was recorded as the impurity content of the crystals.
Impurity content (%)=Total of individual impurity contents (%)
The crystals obtained in Example 1C, Example 1E and Example 1F were stored for 1 month and 3 months at 25° C./1000 Lx (LT-120D3J Light Stability Tester by Nagano Science, Japan), and then the impurity contents were measured by HPLC.
HPLC was conducted under the same conditions as in Test Example 1, except that elution was performed with the gradient program shown in Table 14.
The impurity content of the crystals was determined by the same method as described for Test Example 1. […] That is, the crystals obtained in Examples 1F and 1C (Form A and Form C) clearly had higher stability against light.

[1] = solid crystals stored at 25° C./1000 Lx/1 month
[2] = solid crystals stored at 25° C./1000 Lx/3 months

Impurity content (%) [1]	Impurity content (%) [2]	change in impurity content before and after storage (solid crystals)	Impurity content (%) (solid crystals, before storage)	SMILES
0.51%	0.51%	no change	0.51%	Cc1ccc(NS(=O)(=O)c2cccc(C#N)c2)c2[nH]cc(C#N)c12 [Example 1C, N-(3-cyano-4-methyl-1H-indol-7-yl)-3-cyanobenzenesulfonamide]
0.83%	4.44%	increased	0.50%	Cc1ccc(NS(=O)(=O)c2cccc(C#N)c2)c2[nH]cc(C#N)c12 [Example 1E, N-(3-cyano-4-methyl-1H-indol-7-yl)-3-cyanobenzenesulfonamide]
0.41%	0.51%	no change	0.42%	Cc1ccc(NS(=O)(=O)c2cccc(C#N)c2)c2[nH]cc(C#N)c12 [Example 1F, N-(3-cyano-4-methyl-1H-indol-7-yl)-3-cyanobenzenesulfonamide]
